Measurements taken from article PMC9104286, “Characterization of a Cutibacterium acnes Camp Factor 1-Related Peptide as a New TLR-2 Modulator in In Vitro and Ex Vivo Models of Inflammation” (International Journal of Molecular Sciences, 2022).

Experiments:
[1] = system: C. acnes 6919; assay: Bacterial growth monitored at 620 nm; format: cell-based, Cutibacterium acnes; details: C. acnes 6919, 5 days; B2 at 1 to 128 μM; antibiotics as positive control; growth at 620 nm
From the text: (§1) As a positive control for growth inhibition, we cultured the bacteria in the presence of the antibiotic ampicillin, doxycycline and clindamycin.
(§2) Bacterial growth was monitored at 620 nm.
(§3) We used 24 strains of C. acnes in the study: strain 6919 (Type IA1) from the American Type Culture Collection (Manassas, VA) and strains isolated from various infections (13 bone and joint infections, 1 case of pleuritis, 1 case of appendicitis, 1 case of pericarditis, 1 case of pneumonia, 3 cutaneous infections, 1 case of bacteremia and 2 ascitic fluid infections). C. acnes strains RON (IA1), TRI (IA2), LIE (IA2), CHR (IA2), GUE (IB) and PIE (IB) were isolated from patients with joint infections. All these strains were kindly provided by Dr. Philippe Morand from the Bacteriology Department at Cochin Hospital, Paris, France. C. acnes strains were grown under anaerobic conditions in liquid or solidified reinforced clostridial medium (RCM; Difco Laboratories, Detroit, MI, USA), in a GasPak™ EZ Anaerobic Container System (Becton Dickinson & Co, Franklin Lakes, NJ, USA) at 37 °C. For routine culture, 100 mL of RCM was used and the bacteria were harvested after 5 days at 37 °C, by centrifugation at 7,000 x g for 10 min and 4 °C. The pellets were pooled and washed in about 30 mL cold sterile phosphate-buffered saline (PBS) (1.5 mM KH2PO4, 2.7 mM Na2HPO4.7H2O, 0.15 M NaCl (pH 7.4)), and were then centrifuged again, as described above. The final bacterial pellet was suspended in sterile PBS (1:10 based on the volume of the culture). Staphylococcus aureus (ATCC #25923) and Staphylococcus epidermidis (ATCC #12228) were grown in tryptic soy broth (TSB) and brain heart infusion (BHI) (Sigma-Aldrich, Saint-Louis, MO, USA) under aerobic conditions at 37 °C.

[2] = system: S. epidermidis; assay: Bacterial growth monitored at 620 nm; format: cell-based, Staphylococcus epidermidis; details: 24 h; B2 at 1 to 128 μM; antibiotics as positive control; growth at 620 nm
From the text: as §1, §2, §3

[3] = system: S. aureus; assay: Bacterial growth monitored at 620 nm; format: cell-based, Staphylococcus aureus; details: 24 h; B2 at 1 to 128 μM; antibiotics as positive control; growth at 620 nm
From the text: as §1, §2, §3

[4] = system: human skin explants; assay: Ex vivo human skin explants, induction of proinflammatory molecules by stimuli; format: cell-based; details: skin explants stimulated 18 h, LPS or PGN 5 µg/ml, Luminex, culture supernatant, mean ± SEM, n = 6

| Compound | effect on growth of C. acnes (in words) [1] | effect on growth of S. epidermidis (in words) [2] | effect on growth of S. aureus (in words) [3] | GM-CSF levels [4] | IL-1β levels [4] | IL-10 production [4] | TNF-α production [4] |
| --- | --- | --- | --- | --- | --- | --- | --- |
| CC1(C)S[C@@H]2[C@H](NC(=O)[C@H](N)c3ccccc3)C(=O)N2[C@H]1C(=O)O [ampicillin] | susceptible | resistant | susceptible |  |  |  |  |
| CCC[C@@H]1C[C@@H](C(=O)N[C@@H]([C@H]2O[C@H](SC)[C@H](O)[C@@H](O)[C@H]2O)[C@H](C)Cl)N(C)C1 [clindamycin] | susceptible | susceptible | susceptible |  |  |  |  |
| C[C@H]1c2cccc(O)c2C(=O)C2=C(O)[C@]3(O)C(=O)C(C(N)=O)=C(O)[C@@H](N(C)C)[C@@H]3[C@@H](O)[C@@H]21 [doxycycline] | susceptible | susceptible | susceptible |  |  |  |  |
| lipopolysaccharide [LPS] |  |  |  | 765 ± 30 pg/mL | 392 ± 5.6 pg/mL | 10 ± 0.3 pg/mL | 22 ± 1.7 pg/mL |
| peptidoglycan [PGN] |  |  |  | 4733 ± 218 pg/mL | 23 ± 0.8 pg/mL | 35 ± 1.4 pg/mL | 126 ± 9.3 pg/mL |
